Measurements taken from ChEMBL document CHEMBL1129467, “Synthesis and HIV inhibition activity of 2',3'-dideoxy-3'-C-hydroxymethyl nucleosides” (1996).
“And” between values parts separate entries of the source, which are not always exact repeats. Equal values may be shown once.

Key:
Format in all cases: functional, Homo sapiens
[1] = test system: H9; test: Compound was tested for the cytotoxicity in H-9 cells infected with HIV-IIIB over 14 days
[2] = test system: H9; test: Compound was tested for the cytotoxicity in H-9 cells infected with HIV-IIIB over 7 days
[3] = test system: H9; test: (§1) Compound was tested for the inhibiting acute infection of H9 cells over 7 days at 50 mM
[4] = test system: H9; test: as §1; remark: listed apart in the source
[5] = test system: H9; test: Compound was tested for the inhibiting acute infection of H9 cells over 7 days at 1 mM
[6] = test system: H9; test: Compound was tested for the inhibiting acute infection of H9 cells over 14 days 1 mM
[7] = test system: H9; test: Compound was tested for the cytotoxicity in H-9 cells infected with HIV-IIIB over 9 days
[8] = test system: H9; test: Compound was tested for the effective inhibiting acute infection of H9 cells over 7 days at 100 mM
[9] = test system: H9; test: Compound was tested for the effective inhibiting acute infection of H9 cells over 7 days at 50 mM
[10] = test system: H9; test: Compound was Tested for the inhibiting acute infection of H9 cells over 7 days at 1 mM

Row | Compound | P24 concentration [1] | P24 concentration [2] | also measured
1 | OC[C@H]1C[C@@H](n2cnc3c(Cl)ncnc32)O[C@@H]1CO | 80 ng/mL | 2 ng/mL | –
2 | OC[C@H]1C[C@@H](n2cnc3cncnc32)O[C@@H]1CO | 80 ng/mL | 12 ng/mL | P24 concentration [3]: 14 ng/mL; P24 concentration [4]: 90 ng/mL; P24 concentration [5]: 6 ng/mL; P24 concentration [6]: 90 ng/mL
3 | COc1ncnc2c1ncn2[C@@H]1C[C@H](CO)[C@@H](CO)O1 | 80 ng/mL | 5 ng/mL | –
4 | CCCCCCOc1ncnc2c1ncn2[C@@H]1C[C@H](CO)[C@@H](CO)O1 | 80 ng/mL | 4 ng/mL | –
5 | Cc1cn([C@H]2C[C@H](N=[N+]=[N-])[C@@H](CO)O2)c(=O)[nH]c1=O [ZIDOVUDINE] | – | 100 ng/mL | P24 concentration [7]: 600 ng/mL
6 | OC[C@H]1C[C@H](n2cnc3c(Cl)ncnc32)O[C@@H]1CO | 80 ng/mL | 2 ng/mL | –
7 | COc1ncnc2c1ncn2[C@H]1C[C@H](CO)[C@@H](CO)O1 | 6 ng/mL | 12 ng/mL | P24 concentration [5]: 80 ng/mL
8 | OC[C@H]1C[C@H](n2cnc3cncnc32)O[C@@H]1CO | 80 ng/mL | 8 ng/mL | –
9 | CCCCCCOc1ncnc2c1ncn2[C@H]1C[C@H](CO)[C@@H](CO)O1 | 80 ng/mL | 1 ng/mL | P24 concentration [4]: 1 ng/mL and 3 ng/mL; P24 concentration [5]: 2 ng/mL; P24 concentration [6]: 90 ng/mL
10 | Nc1ncnc2c1ncn2[C@@H]1C[C@H](CO)[C@@H](CO)O1 | 80 ng/mL | 10 ng/mL | –
11 | Nc1ncnc2c1ncn2[C@H]1C[C@H](CO)[C@@H](CO)O1 | 2 ng/mL | 0.5 ng/mL | P24 concentration [8]: 0.1 ng/mL; P24 concentration [9]: 100 ng/mL; P24 concentration [4]: 0.5 ng/mL and 1 ng/mL; P24 concentration [6]: 90 ng/mL; P24 concentration [10]: 6 ng/mL
